Like-named read-outs stand apart in the source and are kept apart here.
Key:
Test in all cases: biochemical
MMP-1 = target: T1, MMP-1 (Homo sapiens, UniProt P03956); conditions: read-out: MMP-1 IC50
T1 construct: made in house; host or cells: transfected HT-1080 cells (provided by Dr. Harold Welgus, Washington University)
T1 sequence (P03956 100-469): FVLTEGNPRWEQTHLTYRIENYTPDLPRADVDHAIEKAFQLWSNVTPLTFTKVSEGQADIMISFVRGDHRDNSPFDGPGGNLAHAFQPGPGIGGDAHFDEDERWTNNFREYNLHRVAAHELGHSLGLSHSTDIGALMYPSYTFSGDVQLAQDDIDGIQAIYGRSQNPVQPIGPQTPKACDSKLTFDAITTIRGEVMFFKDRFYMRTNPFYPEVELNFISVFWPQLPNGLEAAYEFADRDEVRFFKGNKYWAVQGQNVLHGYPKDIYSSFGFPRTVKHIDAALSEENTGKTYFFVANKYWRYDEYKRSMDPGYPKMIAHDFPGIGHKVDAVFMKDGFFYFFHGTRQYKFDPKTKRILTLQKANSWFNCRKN
Procedure, shortened: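 Substrate MCA-PLGL-Dpa-AR-NH2 at 4 μM final; pH 7.5 Tris/NaCl/CaCl2 buffer with 0.05% polyethyleneglycol lauryl ether, 1% DMSO, room temperature. MMP-1 was expressed in transfected HT-1080 cells and APMA-activated.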

MMP-13 = target: T2, MMP-13 (Homo sapiens, UniProt P45452)
T2 construct: made in house; host or cells: baculovirus / insect cells
Procedure, shortened: (§1)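 APMA- or trypsin-activated enzymes were preincubated with inhibitor for 5 min at room temperature, then the fluorogenic substrate MCA-Pro-Leu-Gly-Leu-Dpa-Ala-Arg-NH2 was added to a final 4 μM.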

MMP-2 = target: T3, MMP-2 (Homo sapiens, UniProt P08253); conditions: read-out: MMP-2 IC50
T3 construct: made in house; provided by Dr. Gregory Goldberg, Washington University
T3 sequence (P08253 110-660): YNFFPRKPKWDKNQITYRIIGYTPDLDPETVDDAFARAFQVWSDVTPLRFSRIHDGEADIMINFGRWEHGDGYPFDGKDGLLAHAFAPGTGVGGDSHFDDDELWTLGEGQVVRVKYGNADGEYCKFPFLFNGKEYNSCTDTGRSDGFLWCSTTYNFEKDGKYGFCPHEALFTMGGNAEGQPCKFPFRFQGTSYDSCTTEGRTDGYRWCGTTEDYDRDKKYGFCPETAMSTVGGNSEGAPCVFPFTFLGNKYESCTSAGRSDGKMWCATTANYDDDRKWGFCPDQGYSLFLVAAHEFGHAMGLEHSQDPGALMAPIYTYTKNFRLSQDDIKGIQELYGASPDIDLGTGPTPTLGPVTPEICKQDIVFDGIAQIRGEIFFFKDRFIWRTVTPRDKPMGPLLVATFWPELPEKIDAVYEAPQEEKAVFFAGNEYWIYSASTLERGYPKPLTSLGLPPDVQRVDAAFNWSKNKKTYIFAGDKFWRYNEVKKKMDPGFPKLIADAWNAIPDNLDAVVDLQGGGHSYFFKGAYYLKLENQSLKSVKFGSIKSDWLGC
Procedure, shortened: as §1

[1] = recombinant human MMP-1, MCA peptide substrate 4 μM, pH 7.5, room temperature
[2] = recombinant human MMP-13, MCA peptide substrate 4 μM, pH 7.5, room temperature, read-out: MMP-13 IC50
[3] = recombinant human MMP-2, MCA peptide substrate 4 μM, pH 7.5, room temperature
[4] = MMP-13 IC50 (nM), recombinant human MMP-13, MCA peptide substrate 4 μM, pH 7.5, room temperature

Row | Compound | IC50 (MMP-1; [1]) [nM] | IC50 (MMP-13; [2]) [nM] | IC50 (MMP-2; [3]) [nM] | IC50 (MMP-13; [4]) [nM] | IC50 (MMP-1) [nM] | IC50 (MMP-2) [nM] | IC50 (MMP-13; read-out: MMP-13 IC50) [nM]
1 | O=C(c1ncc[nH]1)N1CCC(C(=O)NO)(S(=O)(=O)c2ccc(Oc3ccc(OC(F)(F)F)cc3)cc2)CC1 [Example 379] | > 10000 | 0.3 | 0.1 | – | – | – | –
2 | CC1CC(C)CN(C(=O)C2CCN(c3ccc(S(=O)(=O)C4(C(=O)NO)CCN(C(=O)CN5CCCC5)CC4)cc3)CC2)C1 (stereo not drawn) [Example 298] | > 10000 | 40 | > 10000 | – | – | – | –
3 | COc1ccc(C(=O)C2CCN(c3ccc(S(=O)(=O)C4(C(=O)NO)CCN(C5CC5)CC4)cc3)CC2)cc1 [Example 441] | > 10000 | 6 | 420 | – | – | – | –
4 | O=C(Nc1ccc(OC(F)(F)F)cc1)C1CCN(c2ccc(S(=O)(=O)C3(C(=O)NO)CCOCC3)cc2)CC1 [Example 73] | > 10000 | 15.4 | 2000 | – | – | – | –
5 | CC1CC(C)CN(C(=O)C2CCN(c3ccc(S(=O)(=O)C4(C(=O)NO)CCN(C(=O)CN5CCN(CCOCCO)CC5)CC4)cc3)CC2)C1 (stereo not drawn) [Example 299] | > 10000 | 30.6 | 9000 | – | – | – | –
6 | O=C(NO)C1(S(=O)(=O)c2ccc(N3CCC(c4ccccc4-c4ccc(F)cc4)CC3)cc2)CCOCC1 [Example 543] | > 10000 | – | 5400 | 33.7 | – | – | –
7 | CC1CC(C)CN(C(=O)C2CCN(c3ccc(S(=O)(=O)C4(C(=O)NO)CCN(C(=O)CNCC5CC5)CC4)cc3)CC2)C1 (stereo not drawn) [Example 293] | > 10000 | 63.1 | > 10000 | – | – | – | –
8 | O=C(C1CCN(c2ccc(S(=O)(=O)C3(C(=O)NO)CCOCC3)cc2)CC1)N1CCN(c2ccncc2)CC1 [Example 37] | – | – | – | 30 | > 10000 | 1750 | –
9 | O=C(NO)C1(S(=O)(=O)c2ccc(N3CCC(OCc4ccc(F)cc4)CC3)cc2)CCOCC1 [Example 164] | > 10000 | 3.5 | 440 | – | – | – | –
10 | COc1ccc(Oc2ccc(S(=O)(=O)C3(C(=O)NO)CCSCC3)cc2)cc1 [Example 146] | – | – | – | – | 3000 | 0.3 | 0.2
11 | O=C(C1CCN(c2ccc(S(=O)(=O)C3(C(=O)NO)CCOCC3)cc2)CC1)N1CCN(c2nccc(C(F)(F)F)n2)CC1 [Example 49] | – | – | – | – | > 10000 | 6500 | 20
12 | CCOC(=O)C1CCN(CC(=O)N2CCC(C(=O)NO)(S(=O)(=O)c3ccc(N4CCC(C(=O)N5CC(C)CC(C)C5)CC4)cc3)CC2)CC1 (stereo not drawn) [Example 313] | > 10000 | 77 | > 10000 | – | – | – | –
13 | O=C(NCC1CC1)C1CCN(c2ccc(S(=O)(=O)C3(C(=O)NO)CCOCC3)cc2)CC1 [Example 53] | > 10000 | 28.9 | 1400 | – | – | – | –
14 | O=C(NO)C1(S(=O)(=O)c2ccc(Oc3ccc(OC(F)(F)F)cc3)cc2)CCN(c2ccccn2)CC1 [Example 352] | > 10000 | 1.4 | 0.3 | – | – | – | –

The next lines start with results.

Row | IC50 (MMP-1; [1]) [nM] | IC50 (MMP-13; [2]) [nM] | IC50 (MMP-2; [3]) [nM] | Compound | IC50 (MMP-13; [4]) [nM] | IC50 (MMP-1) [nM] | IC50 (MMP-2) [nM] | IC50 (MMP-13; read-out: MMP-13 IC50) [nM]
15 | > 10000 | 50 | 125 | COc1ccccc1COC1CCC(Oc2ccc(S(=O)(=O)C3(C(=O)NO)CCOCC3)cc2)C1 (stereo not drawn) [Example 741] | – | – | – | –
16 | > 10000 | 7.2 | 80 | N#Cc1ccccc1COC1CCN(c2ccc(S(=O)(=O)C3(C(=O)NO)CCOCC3)cc2)CC1 [Example 559] | – | – | – | –
17 | > 10000 | 140 | 800 | CC1CN(c2ccc(S(=O)(=O)C3(C(=O)NO)CCOCC3)cc2)CCN1c1ccccc1 (stereo not drawn) [Example 487] | – | – | – | –
18 | > 10000 | 19.3 | 210 | O=C(NO)C1(S(=O)(=O)c2ccc(N3CCCC(COCc4ccc(Cl)c(Cl)c4)C3)cc2)CCOCC1 (stereo not drawn) [Example 508] | – | – | – | –
19 | 3400 | 6.7 | 330 | O=C(NO)C1(S(=O)(=O)c2ccc(N3CCC(OCc4cccc(OC(F)(F)F)c4)CC3)cc2)CCOCC1 [Example 173] | – | – | – | –
20 | > 10000 | 0.4 | 0.2 | CN(C)c1ccc(NC(=S)N2CCC(C(=O)NO)(S(=O)(=O)c3ccc(Oc4ccc(OC(F)(F)F)cc4)cc3)CC2)cc1 [Example 202] | – | – | – | –
21 | > 10000 | 11.4 | 350 | CCCCOc1ccc(NC(=O)OC2CCN(c3ccc(S(=O)(=O)C4(C(=O)NO)CCOCC4)cc3)CC2)cc1 [Example 518] | – | – | – | –
22 | > 10000 | 6 | 4 | CC(C)c1cccc(OC2CCN(c3ccc(S(=O)(=O)C4(C(=O)NO)CCOCC4)cc3)CC2)c1 [Example 482] | – | – | – | –
23 | > 10000 | 37.2 | 700 | O=C(NO)C1(S(=O)(=O)c2ccc(N3CCC(OCc4cccnc4)CC3)cc2)CCOCC1 [Example 580] | – | – | – | –
24 | > 10000 | 2400 | > 10000 | CC(=O)c1ccc(OC2CCN(c3ccc(S(=O)(=O)C4(C(=O)NO)CCOCC4)cc3)CC2)c(Cl)c1 [Example 471] | – | – | – | –
25 | > 10000 | 16.4 | 306 | CC(C)CCOc1ccc(COC2CCN(c3ccc(S(=O)(=O)C4(C(=O)NO)CCOCC4)cc3)CC2)cc1 [Example 478] | – | – | – | –
26 | > 10000 | 5 | 50 | COc1ccc(S(=O)(=O)N2CCN(c3ccc(S(=O)(=O)C4(C(=O)NO)CCOCC4)cc3)CC2)cc1 [Example 678] | – | – | – | –
27 | > 10000 | 7 | 28.8 | CC(C)CC(=O)C1CCN(c2ccc(S(=O)(=O)C3(C(=O)NO)CCOCC3)cc2)CC1 [Example 756] | – | – | – | –
28 | > 10000 | 7 | 34.7 | O=C(NO)C1(S(=O)(=O)c2ccc(N3CCN(S(=O)(=O)c4ccc(C(F)(F)F)cc4)CC3)cc2)CCOCC1 [Example 677] | – | – | – | –
29 | > 10000 | 10 | 150 | O=C(NO)C1(S(=O)(=O)c2ccc(N3CC[C@@H](OCc4cccc(C(F)(F)F)c4)C3)cc2)CCOCC1 [Example 532] | – | – | – | –
30 | > 10000 | 18.1 | 325 | COc1cc(COC2CCN(c3ccc(S(=O)(=O)C4(C(=O)NO)CCOCC4)cc3)CC2)cc(OC)c1 [Example 178] | – | – | – | –
31 | > 10000 | 140 | 2000 | CC(=O)c1ccc(OC2CCN(c3ccc(S(=O)(=O)C4(C(=O)NO)CCOCC4)cc3)CC2)cc1 [Example 470] | – | – | – | –
32 | > 10000 | 3.5 | 50 | O=C(Nc1ccccc1Cl)OC1CCN(c2ccc(S(=O)(=O)C3(C(=O)NO)CCOCC3)cc2)CC1 [Example 521] | – | – | – | –
33 | > 10000 | 0.7 | 0.3 | O=C(CCCCN1CCCCC1)N1CCC(C(=O)NO)(S(=O)(=O)c2ccc(Oc3ccc(C(F)(F)F)cc3)cc2)CC1 [Example 334] | – | – | – | –

— US6750228B1, “Aromatic sulfone hydroxamic acid metalloprotease inhibitor” (priority 1997, dated 2004)
